Entries after “also recorded” stand apart in the source; their conditions may differ. Bridges are numbered along the chain shown (N, C = ends). Where no end group is shown, it is not given here. [ ]: non-standard residue; d: D form. The star is where a group is joined. cyanopropanyl = 3-cyanopropanyl N-terminal cap, N#CCCC*; Nicotinoyl = O=C(c1cccnc1)*; Hexanoyl = CCCCCC(=O)*; PhAc = O=C(Cc1ccccc1)*; Bz = O=C(c1ccccc1)*; Allyl = C=CC*
Tested on: HeLa cells
Experiment: Autophagy induction judged by p62 and LC3 immunoblots together
Format: cell-based
Set-up: key to Activity compared to wild-type WT / Activity (μM) 10, single symbol / Activity (μM) 30, single symbol / Activity (μM) 50, single symbol / Activity (μM) 100, single symbol: −: activity not reported; 0: decreased vs. WT; +: similar to WT; ++: modest increase vs. WT; +++: significant increase vs. WT
Conditions: for concentration at which autophagy induction (p62 degradation and LC3 lipidation) was observed: immunoblot, 3 hour treatment; for Activity compared to wild-type WT: Tat-linked linear peptides, summation of p62 degradation assay and LC3 marker assay
Protocol: This 10-mer sequence was substituted with various thiol-containing amino acids at various positions, and then cross-linked with various linkers as described above (FIG. 5, a and FIG. 6).
Cells were treated with peptide in OPTI-MEM (Thermo Scientific) acidified with 0.15% (v/v) 6N HCl for 3 hour. Cells were rinsed with Dulbecco's phosphate buffered saline (PBS) and lysed in lysis buffer (20 mM HEPES, 150 mM NaCl, 1 mM EDTA, 1% Triton X-100, protease inhibitor cocktail (Roche) on ice for 1 hour. Cell lysates were centrifuged at 16,000 g for 10 min at 4° C. and analyzed by SDS-PAGE and transferred to PVDF membranes. The membranes were blocked 5% non-fat dry milk (NFDM) in PBST (PBS+0.05% Tween-20) for 1 hour, then incubated overnight at 4° C. with primary antibody in 5% NFDM in PBST. The blots were washed with PBST and incubated with HRP-conjugated secondary antibodies diluted in 5% NFDM in PBST for 1 hour at room temperature. Membranes were washed with PBST and visualized with SuperSignal West Pico Chemiluminescent Substrate (Thermo Scientific). Semi-quantitative results were obtained by noting the lowest concentration at which both p62 degradation and LC3-I to LC3-II conversion were observed.
(SEQ ID NO: 16)-Sequence. […] The N-terminus was capped with an acetyl group while the C terminus was capped with a —C(O)—NH2 group. The activity reported is a summation of results from both the p62 degradation assay and the LC3 marker assay.

[1] = HeLa cells, p62 and LC3 immunoblots

| Substance | autophagy induction, result in words [1] | also measured |
| --- | --- | --- |
| (acetyl)-VcNAcFHIWH (Ac-V[dC]NA[dC]FHIWH; linker 2-5 via ortho‑xylene (inferred); not fully specified (C-terminus); printed as (acetyl)-VcNAcFHIWH) [Ac-DD5-o] | almost no autophagy-inducing activity |  |
| (benzo)-VcNAcFHIWH (Bz-V[dC]NA[dC]FHIWH; linker 2-5 via ortho‑xylene (inferred); not fully specified (C-terminus); printed as (benzo)-VcNAcFHIWH) [benzo-DD5-o] | induced autophagy to a slightly lesser extent than DD5-o | concentration at which autophagy induction (p62 degradation and LC3 lipidation) was observed (HeLa cells): 50 µM |
| (cyano)-VcNAcFHIWH (cyanopropanyl-V[dC]NA[dC]FHIWH; linker 2-5 via ortho‑xylene (inferred); not fully specified (C-terminus); printed as (cyano)-VcNAcFHIWH) [cyano-DD5-o] | induced autophagy, but to a somewhat lesser extent than DD5-o |  |
| (free amine)-VcNAcFHIWH (H-V[dC]NA[dC]FHIWH; linker 2-5 via ortho‑xylene (inferred); not fully specified (C-terminus); printed as VcNAcFHIWH) [Compound H2N-DD5-o] | almost no autophagy-inducing activity |  |
| (hexano)-VcNAcFHIWH (Hexanoyl-V[dC]NA[dC]FHIWH; linker 2-5 via ortho‑xylene (inferred); not fully specified (C-terminus); printed as (hexano)-VcNAcFHIWH) [hexano-DD5-o] | induced autophagy, but to a somewhat lesser extent than DD5-o | concentration at which autophagy induction (p62 degradation and LC3 lipidation) was observed (HeLa cells): 50 µM |
| (hexyno)-VcNAcFHIWH (hexynoyl-V[dC]NA[dC]FHIWH; linker 2-5 via ortho‑xylene (inferred); not fully specified (C-terminus); printed as (hexyno)-VcNAcFHIWH) [hexyno-DD5-o] | induced autophagy, but to a somewhat lesser extent than DD5-o |  |
| (nicot)-VcNAcFHIWH (Nicotinoyl-V[dC]NA[dC]FHIWH; linker 2-5 via ortho‑xylene (inferred); not fully specified (C-terminus); printed as (nicot)-VcNAcFHIWH) [nicot-DD5-o] |  | autophagy induction, result in words (HeLa cells, p62 and LC3 immunoblots, listed as nicotinic acid cap): showed no activity; also recorded: no activity was observed |
| (pa)-AcNAcFHIWH (pa-A[dC]NA[dC]FHIWH; linker 2-5 via ortho‑xylene (inferred)) [Val1Ala] | complete loss in activity | autophagy induction, result in words (HeLa cells, p62 and LC3 immunoblots, listed as Vail): complete loss of activity |
| (pa)-VCNAcFHIWH (pa-VCNA[dC]FHIWH; linker 2-5 via ortho‑xylene (inferred)) [LD5-o] | mildly increased autophagy |  |
| (pa)-VWNATFHIWH (not fully specified (N-terminus, C-terminus); printed as (pa)-VWNATFHIWH) [pa-10mer, no linker] | barely detectable activity | concentration at which autophagy induction (p62 degradation and LC3 lipidation) was observed (HeLa cells): 100 µM |
| (pa)-VWNATFHIWHD (not fully specified (N-terminus, C-terminus); printed as (pa)-VWNATFHIWHD) [pa-11mer, no linker] | did not increase autophagic activity; also recorded: loss of activity |  |
| (pa)-VcAAcFHIWH (pa-V[dC]AA[dC]FHIWH; linker 2-5 via ortho‑xylene (inferred)) [Asn3Ala] | milder effects on activity |  |
| (pa)-VcNACFHIWH (pa-V[dC]NACFHIWH; linker 2-5 via ortho‑xylene (inferred)) [DL5-o] | mildly increased autophagy |  |
| (pa)-VcNATcHIWH (pa-V[dC]NAT[dC]HIWH; linker 2-6 via meta‑xylene (inferred)) [DD6-m] | capable of inducing autophagy | concentration at which autophagy induction (p62 degradation and LC3 lipidation) was observed (HeLa cells): 100 µM |
| (pa)-VcNAcAHIWH (pa-V[dC]NA[dC]AHIWH; linker 2-5 via ortho‑xylene (inferred)) [Phe6Ala] | complete loss of activity; also recorded: complete loss in activity |  |
| (pa)-VcNAcFAIWH (pa-V[dC]NA[dC]FAIWH; linker 2-5 via ortho‑xylene (inferred)) [His7Ala] | milder effects on activity |  |
| (pa)-VcNAcFHAWH (pa-V[dC]NA[dC]FHAWH; linker 2-5 via ortho‑xylene (inferred)) [Ile8Ala] | complete loss of activity; also recorded: complete loss in activity |  |
| (pa)-VcNAcFHIAH (pa-V[dC]NA[dC]FHIAH; linker 2-5 via ortho‑xylene (inferred)) [Trp9Ala] | significantly decreased activity | concentration at which autophagy induction (p62 degradation and LC3 lipidation) was observed (HeLa cells): 100 µM |

| Substance | autophagy induction, result in words [1] | also measured |
| --- | --- | --- |
| (pa)-VcNAcFHIWA (pa-V[dC]NA[dC]FHIWA; linker 2-5 via ortho‑xylene (inferred)) [His10Ala] | significantly decreased activity | concentration at which autophagy induction (p62 degradation and LC3 lipidation) was observed (HeLa cells): 100 µM; activity relative to DD5-o (fold worse) [1]: 5 fold |
| (pa)-VcNAcFHIWH [DD5-allyl] (pentynoyl-V[dC](Allyl)NA[dC](Allyl)FHIWH; not fully specified (C-terminus); printed as (pa)-VcNAcFHIWH [DD5-allyl]) [allyl, unstapled] | did not induce autophagy |  |
| (pa)-VcNAcFHIWH [DD5-m] (pa-V[dC]NA[dC]FHIWH; linker 2-5 via meta‑xylene (inferred)) | did not induce autophagy |  |
| (pa)-VcNAcFHIWH [LL5-o] (VCNACFHIWH; not fully specified (residues 2, 5, N-terminus, bridges); printed as (pa)-VcNAcFHIWH; cysteine pairing not given here) [ortho-xylene linker; stereoisomer with two L-cysteines, negative control] | no autophagy-inducing activity | concentration at which autophagy induction (p62 degradation and LC3 lipidation) was observed (HeLa cells): 100 µM |
| (pentene)-VcNAcFHIWH [pentene-DD5-o] | induced autophagy, but to a somewhat lesser extent than DD5-o | concentration at which autophagy induction (p62 degradation and LC3 lipidation) was observed (HeLa cells): 50 µM |
| (phenyl)-VcNAcFHIWH (PhAc-V[dC]NA[dC]FHIWH; linker 2-5 via ortho‑xylene (inferred); not fully specified (C-terminus); printed as (phenyl)-VcNAcFHIWH) [phenyl-DD5-o] | showed no activity |  |
| CFNATFEIWHD [Compound T1, Tat-linked linear peptide] |  | Activity compared to wild-type WT: + |
| DFNATFEIWHD [Compound T23, Tat-linked linear peptide] |  | Activity compared to wild-type WT: 0 |
| FNATFEIWH [Compound T30, Tat-linked linear peptide] |  | Activity compared to wild-type WT: + |
| FNATFEIWHD [Compound T21, Tat-linked linear peptide] |  | Activity compared to wild-type WT: ++ |
| FNATFHIWH [Compound T31, Tat-linked linear peptide] |  | Activity compared to wild-type WT: + |
| GFNATFEIWHD [Compound T24, Tat-linked linear peptide] |  | Activity compared to wild-type WT: 0 |
| TFNATFEIWHD [Compound T22, Tat-linked linear peptide] |  | Activity compared to wild-type WT: 0 |
| VCNATCHIWH (V[dC]NAT[dC]HIWH; cysteine pairing not given here; also: Formula I modifications, R1 T, Z MP) [Compound 75] |  | Activity (μM) 10, single symbol (10 μM, Table 8, one symbol only): + |
| VFDATFEIWHD [Compound T3, Tat-linked linear peptide] | less than Tat-beclin-1 |  |
| VFNACFEIWHD [Compound T5, Tat-linked linear peptide] |  | Activity compared to wild-type WT: 0 |
| VFNATFDIWHD [Compound T7, Tat-linked linear peptide] |  | Activity compared to wild-type WT: + |
| VFNATFEFWHD [Compound T18, Tat-linked linear peptide] |  | Activity compared to wild-type WT: + |

Reference: patent publication US10993983B2, “Cyclic peptide epitopes and small-molecule mimics for inducing autophagy” (TRUSTEES OF TUFTS COLLEGE, priority 2016, dated 2021)
